Test results as given in patent US9403798B2, “Triazinone compound and T-type calcium channel inhibitor” (NISSAN CHEMICAL INDUSTRIES, LTD., priority 2012, dated 2016).

Biological target: T1, Human T-type calcium channel (Cav 3.2) (Homo sapiens, UniProt O95180)
T1 construct: Edward Perez-Reyes, University of Virginia, USA; host or cells: HEK293
Test: Calcium Influx Inhibition Assay
Assay type: cell-based
Conditions: Human T-type calcium channel (Cav 3.2) expressing HEK293 cells, FLIPR Calcium 4 fluorescence
Experimental: 1. Calcium Influx Inhibition Assay
Human T-type calcium channel (Cav 3.2) expressing HEK293 cells were obtained from Prof. Edward Perez-Reyes, University of Virginia, USA. The calcium-sensitive fluorescent dye used was FLIPR Calcium 4 Assay Kit (Molecular Devices). To a black 96-well plate with a clear bottom coated with type I collagen, the human T-type calcium channel (Cav 3.2) expressing HEK293 cells were seeded and cultured overnight, and the culture medium was removed. A solution of the calcium-sensitive fluorescent dye was added, and the plate was incubated at 37° C. in an atmosphere of 5% carbon dioxide for 30 minutes. To the plate, a diluted solution of a compound was added, and the whole was further incubated at 37° C. in an atmosphere of 5% carbon dioxide for 30 minutes. While fluorescence was continuously analyzed from the bottom with a FlexStation 3 (Molecular Devices), a calcium solution was added. […] From the rise in the fluorescence from the base line, the inhibition percentage was calculated. The logarithms of compound concentrations were plotted with respect to the inhibition activities to give an IC50 value.

T1 sequence (O95180 whole entry): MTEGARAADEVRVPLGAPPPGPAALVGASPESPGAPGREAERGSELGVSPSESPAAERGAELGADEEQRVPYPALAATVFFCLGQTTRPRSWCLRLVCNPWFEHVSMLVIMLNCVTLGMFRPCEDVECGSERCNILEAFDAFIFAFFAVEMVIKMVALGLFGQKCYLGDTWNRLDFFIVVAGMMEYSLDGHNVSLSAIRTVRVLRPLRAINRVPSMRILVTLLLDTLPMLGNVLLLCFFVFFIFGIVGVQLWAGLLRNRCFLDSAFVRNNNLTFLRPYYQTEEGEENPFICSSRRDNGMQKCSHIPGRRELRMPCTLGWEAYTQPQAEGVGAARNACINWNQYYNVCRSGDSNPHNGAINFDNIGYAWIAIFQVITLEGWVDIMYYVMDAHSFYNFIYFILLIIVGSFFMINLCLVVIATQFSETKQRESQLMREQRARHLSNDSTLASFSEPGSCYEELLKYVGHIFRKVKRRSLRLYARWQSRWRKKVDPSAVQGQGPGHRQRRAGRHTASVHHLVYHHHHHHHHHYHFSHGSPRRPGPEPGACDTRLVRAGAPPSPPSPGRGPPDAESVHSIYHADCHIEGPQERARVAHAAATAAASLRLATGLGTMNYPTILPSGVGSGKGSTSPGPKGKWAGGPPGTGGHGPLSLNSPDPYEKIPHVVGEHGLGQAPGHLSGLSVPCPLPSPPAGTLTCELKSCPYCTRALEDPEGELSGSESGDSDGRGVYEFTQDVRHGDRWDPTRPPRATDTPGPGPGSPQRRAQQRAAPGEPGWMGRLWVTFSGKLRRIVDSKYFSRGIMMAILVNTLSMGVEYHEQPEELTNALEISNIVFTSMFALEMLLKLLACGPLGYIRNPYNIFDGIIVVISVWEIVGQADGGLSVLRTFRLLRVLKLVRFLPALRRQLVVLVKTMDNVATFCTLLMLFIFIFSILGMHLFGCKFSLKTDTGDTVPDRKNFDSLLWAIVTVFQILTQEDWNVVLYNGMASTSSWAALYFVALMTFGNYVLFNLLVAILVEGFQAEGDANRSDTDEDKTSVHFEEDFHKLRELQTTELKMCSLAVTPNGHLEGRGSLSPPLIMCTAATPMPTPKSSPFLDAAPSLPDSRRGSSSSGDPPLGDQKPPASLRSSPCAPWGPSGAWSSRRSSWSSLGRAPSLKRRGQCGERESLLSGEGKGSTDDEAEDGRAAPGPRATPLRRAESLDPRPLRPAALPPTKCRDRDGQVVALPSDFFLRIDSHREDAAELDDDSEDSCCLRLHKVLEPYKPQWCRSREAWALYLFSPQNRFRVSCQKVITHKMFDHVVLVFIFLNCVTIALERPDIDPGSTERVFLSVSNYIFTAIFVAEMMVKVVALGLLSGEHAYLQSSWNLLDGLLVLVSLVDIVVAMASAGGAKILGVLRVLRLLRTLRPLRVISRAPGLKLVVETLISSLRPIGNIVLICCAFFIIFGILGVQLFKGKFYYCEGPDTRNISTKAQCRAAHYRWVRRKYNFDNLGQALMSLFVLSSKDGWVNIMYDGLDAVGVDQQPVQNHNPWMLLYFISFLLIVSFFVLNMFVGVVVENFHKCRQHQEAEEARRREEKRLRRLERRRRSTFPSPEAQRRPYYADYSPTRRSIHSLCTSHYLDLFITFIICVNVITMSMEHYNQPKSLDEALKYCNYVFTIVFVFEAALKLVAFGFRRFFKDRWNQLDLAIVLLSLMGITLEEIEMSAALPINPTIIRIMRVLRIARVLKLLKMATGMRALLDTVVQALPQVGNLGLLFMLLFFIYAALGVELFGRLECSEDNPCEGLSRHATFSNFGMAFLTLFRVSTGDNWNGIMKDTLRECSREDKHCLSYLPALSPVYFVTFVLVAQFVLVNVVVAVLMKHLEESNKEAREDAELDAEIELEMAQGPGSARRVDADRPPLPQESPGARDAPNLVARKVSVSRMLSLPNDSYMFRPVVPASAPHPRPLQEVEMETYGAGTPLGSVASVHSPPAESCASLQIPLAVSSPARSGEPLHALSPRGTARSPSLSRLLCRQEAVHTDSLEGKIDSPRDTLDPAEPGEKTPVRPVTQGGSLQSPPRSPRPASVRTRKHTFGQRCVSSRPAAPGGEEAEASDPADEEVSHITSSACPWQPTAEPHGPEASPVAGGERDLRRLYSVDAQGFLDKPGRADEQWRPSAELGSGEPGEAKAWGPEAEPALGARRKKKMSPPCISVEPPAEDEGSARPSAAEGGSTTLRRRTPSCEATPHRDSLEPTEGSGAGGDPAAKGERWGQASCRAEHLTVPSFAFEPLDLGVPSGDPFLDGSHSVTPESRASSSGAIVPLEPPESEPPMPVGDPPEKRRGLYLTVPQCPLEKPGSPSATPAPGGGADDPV

SMILES	IC50 [nM]
O=c1nc(N[C@@H]2CCO[C@H](c3ccc(F)cc3)C2)ncn1Cc1ccc(C(F)(F)F)s1 (racemic) [compound 307]	270
O=c1nc(N[C@@H]2CO[C@H](c3ccc(F)cc3)C2)ncn1Cc1ccc(C(F)(F)F)s1 (racemic) [compound 309]	520
O=c1nc(NCC2CC2c2ccc(F)cc2)ncn1Cc1ccc(C(F)(F)F)s1 (single isomer, unassigned) [compound 310]	170
O=c1nc(N2CCC(c3ccc(F)cc3)C(F)(F)C2)ncn1Cc1ccc(Cl)cc1 (stereo not shown) [466b]	570
O=c1nc(N2CCN(c3ccc(F)cc3)CC2)ncn1Cc1ccc(Cl)cc1 [compound 1]	170
O=c1nc(N2CCN(c3ccc(F)cc3)CC2)ncn1Cc1ccc(C(F)(F)F)cc1 [compound 3]	100
O=c1nc(N2CCN(c3ccc(F)cc3)CC2)ncn1Cc1cccc(C(F)(F)F)c1 [compound 8]	140
CC(C)(C)c1cc(Cn2cnc(N3CCN(c4ccc(F)cc4)CC3)nc2=O)[nH]n1 [compound 15]	280
O=c1cc(C(F)(F)F)ccn1Cn1cnc(N2CCN(c3ccc(F)cc3)CC2)nc1=O [compound 16]	580
O=c1nc(N2CCN(c3ccc(F)cc3)CC2)ncn1Cn1ccc(C2CCCCC2)n1 [compound 27]	150
O=c1nc(N2CCN(c3ccc(F)cc3)CC2)ncn1Cc1csc(C(F)(F)F)n1 [compound 29]	320
COc1nc(N2CCN(c3ccc(F)cc3)CC2)nc(=O)n1Cc1ccc(Cl)cc1 [compound 31]	230
CCOC(=O)c1cc(C(C)(C)C)n(Cn2cnc(N3CCN(c4ccc(F)cc4)CC3)nc2=O)n1 [compound 34]	520
Cc1cccc(N2CCN(c3ncn(Cn4ccc(C(F)(F)F)n4)c(=O)n3)CC2)c1 [compound 39]	210
O=c1nc(N2CCN(c3ccc(SC(F)(F)F)cc3)CC2)ncn1Cn1ccc(C(F)(F)F)n1 [compound 43]	440
N#Cc1ccc(N2CCN(c3ncn(Cn4ccc(C(F)(F)F)n4)c(=O)n3)CC2)cc1 [compound 49]	860
O=c1nc(N2CCN(c3cc(F)c(F)c(F)c3)CC2)ncn1Cn1ccc(C(F)(F)F)n1 [compound 58]	170

SMILES	IC50 [nM]
Cc1ccccc1N1CCN(c2ncn(Cn3ccc(C(F)(F)F)n3)c(=O)n2)CC1 [compound 59]	800
O=c1nc(N2CCN(c3ccc(Cl)cc3F)CC2)ncn1Cn1ccc(C(F)(F)F)n1 [compound 60]	420
CCCCOc1nc(N2CCN(c3ccc(F)cc3)CC2)nc(=O)n1Cc1ccc(Cl)cc1 [compound 65]	610
COc1nc(N2CCN(c3ccc(F)cc3)CC2)nc(=O)n1Cc1ccc(OCc2ccc(Cl)cc2)cc1 [compound 66]	88
O=c1nc(N[C@@H]2CCCN(c3ccc(F)cc3)C2)ncn1Cc1ccc(Cl)cc1 [compound 82]	120
C[C@@H]1CN(c2ccc(F)cc2)CCN1c1ncn(Cc2ccc(Cl)cc2)c(=O)n1 [compound 96]	110
O=c1nc(N2CCC(c3ccc(F)cc3)CC2)ncn1Cc1ccc(Cl)cc1 [compound 114]	130
O=c1nc(Nc2ccn(-c3ccc(F)cc3)c2)ncn1Cc1ccc(Cl)cc1 [compound 131]	200
CC1CC(F)(c2ccc(F)cc2)CCN1c1ncn(Cc2ccc(Cl)cc2)c(=O)n1 (stereo not shown) [compound 134]	320
O=c1nc(N2CCN(c3ccc(F)cc3)CC2)ncn1Cc1ccc(OCC(F)(F)F)nc1 [compound 144]	96
O=c1nc(N2CC=C(c3ccc(F)cc3)CC2)ncn1Cc1ccc(OCC(F)(F)F)nn1 [compound 162]	600
O=c1nc(N2CC=C(c3ccc(F)cc3)CC2)ncn1Cc1ccc2c(c1)OCO2 [compound 182]	100
O=c1nc(N2CC=C(c3cnn(CC(F)(F)F)c3)CC2)ncn1Cc1ccc(C(F)(F)F)s1 [compound 259]	600
O=c1nc(N2CC=C(c3cc4ccccc4o3)CC2)ncn1Cc1ccc(C(F)(F)F)s1 [compound 260]	140
O=c1nc(N2CC=C(c3cncs3)CC2)ncn1Cc1ccc(C(F)(F)F)s1 [compound 265]	570
COc1cncc(C2=CCN(c3ncn(Cc4ccc(C(F)(F)F)s4)c(=O)n3)CC2)n1 [compound 272]	350

Now those with a lower IC50, led by results:

IC50 [nM]	SMILES
53	O=c1nc(N2CCN(c3ccc(F)cc3)CC2)nc(CO)n1Cc1ccc(C(F)(F)F)s1 [458b]
56	CC(C)(C)c1ccc(Cn2cnc(N3CCN(c4ccc(F)cc4)CC3)nc2=O)cc1 [compound 5]
19	O=c1nc(N2CCN(c3ccc(F)cc3)CC2)ncn1Cc1ccc(OC(F)(F)F)cc1 [compound 6]
50	O=c1nc(N2CCN(c3ccc(F)cc3)CC2)ncn1Cc1cc2cc(Cl)ccc2o1 [compound 18]
61	O=c1nc(N2CCN(c3ccc(F)cc3)CC2)ncn1Cc1ccc(C(F)(F)F)o1 [compound 21]
25	O=c1nc(N2CCN(c3ccc(F)cc3)CC2)ncn1Cc1ccc(C(F)(F)F)s1 [compound 25]
75	O=c1nc(N2CCN(c3ccc(Cl)cc3)CC2)ncn1Cn1ccc(C(F)(F)F)n1 [compound 38]
19	O=c1nc(N2CC=C(c3ccccc3)CC2)ncn1Cc1ccc(C(F)(F)F)s1 [compound 70]
24	O=c1nc(N2CC=C(c3ccc(Cl)cc3)CC2)ncn1Cc1ccc(C(F)(F)F)s1 [compound 71]
57	O=c1nc(NC2CCC(c3ccc(F)cc3)C2)ncn1Cc1ccc(Cl)cc1 (stereo not shown) [compound 85]
19	O=c1nc(N2CC=C(c3ccc(F)cc3)C(O)C2)ncn1Cc1ccc(Cl)cc1 (stereo not shown) [compound 90]
47	O=c1nc(N[C@@H]2CCN(c3ccc(F)cc3)C2)ncn1Cc1ccc(Cl)cc1 [compound 92]
76	O=c1nc(N2CC=C(c3ccc(F)cc3)C(F)C2)ncn1Cc1ccc(Cl)cc1 (stereo not shown) [compound 107]
30	O=c1nc(NC2CCC3(c4ccc(F)cc4)CC23)ncn1Cc1ccc(Cl)cc1 (stereo not shown) [compound 127]
60	O=c1nc(NC[C@H]2CCCN2c2ccc(F)cc2)ncn1Cc1ccc(Cl)cc1 [compound 129]
77	O=c1nc(Nc2nc(-c3ccc(F)c(F)c3)cs2)ncn1Cc1ccc(Cl)cc1 [compound 130]
55	CCCCCCOc1ccc(Cn2cnc(N3CCN(c4ccc(F)cc4)CC3)nc2=O)cc1 [compound 140]
51	Cc1cc(Cn2cnc(N3CCN(c4ccc(F)cc4)CC3)nc2=O)sc1Br [compound 153]
60	O=c1nc(N2CC=C(c3ccc(F)cc3)CC2)ncn1Cc1ccc2c(c1)CCCO2 [compound 178]
41	CC(C)(C)c1ccc(Cn2cnc(N3CC=C(c4ccc(F)cc4)CC3)nc2=O)cc1 [compound 183]

IC50 [nM]	SMILES
43	O=c1nc(N2CC=C(c3ccc(F)cc3)CC2)ncn1Cc1ccc2oc(C(F)(F)F)cc2c1 [compound 184]
42	O=c1nc(N2CC=C(c3ccc(F)cc3)C(O)C2)ncn1Cn1ccc(C(F)(F)F)n1 (stereo not shown) [compound 188]
12	O=c1nc(N2CC=C(c3ccc(F)cc3)C(O)C2)ncn1Cc1ccc(OS(=O)(=O)C(F)(F)F)nc1 (stereo not shown) [compound 189]
3.3	O=c1nc(N2CC=C(c3ccc(F)cc3)C(O)C2)ncn1Cc1ccc(C(F)(F)F)s1 (stereo not shown) [compound 190]
9.9	O=c1nc(N2CC=C(c3ccc(F)cc3)C(O)C2)ncn1Cn1ccc(C(F)(F)C(F)(F)F)n1 (stereo not shown) [compound 194]
3.6	O=c1nc(N2CC=C(c3ccc(F)cc3)C(O)C2)ncn1Cc1ccc2c(c1)CC(C(F)(F)F)O2 (stereo not shown) [compound 195]
20	O=c1nc(N2CC=C(c3ccc(F)cc3)C(O)C2)ncn1Cc1ccc(C2CCCO2)s1 (stereo not shown) [compound 196]
5.7	O=c1nc(N2CC=C(c3ccc(F)cc3)C(O)C2)ncn1Cc1cc2c(s1)CCCC2 (stereo not shown) [compound 201]
47	CC(c1ccc(C(F)(F)F)s1)n1cnc(N2CC=C(c3ccc(F)cc3)C(O)C2)nc1=O (stereo not shown) [compound 202]
7.5	CC(F)(F)c1ccc(Cn2cnc(N3CC=C(c4ccc(F)cc4)[C@@H](O)C3)nc2=O)s1 [compound 207]
6.2	O=c1nc(N2CC=C(c3ccc(F)cc3)[C@@H](O)C2)ncn1Cc1ccc(OS(=O)(=O)C(F)(F)F)nc1 [compound 208]
2	O=c1nc(N2CC=C(c3ccc(F)cc3)[C@@H](O)C2)ncn1Cc1ccc(OS(=O)(=O)C(F)(F)F)cc1 [compound 211]
3.4	Cc1nc(N2CC=C(c3ccc(F)cc3)[C@@H](O)C2)nc(=O)n1Cc1ccc(OS(=O)(=O)C(F)(F)F)cc1 [compound 213]
5.5	Cc1nc(N2CC=C(c3ccc(F)cc3)[C@@H](O)C2)nc(=O)n1Cc1cnc(C(F)(F)F)s1 [compound 219]
57	O=c1nc(N[C@@H]2CCN(c3ccc(F)cc3)C2)ncn1Cc1ccc(C(F)(F)F)s1 [compound 224]
22	O=c1nc(N2CC=C(c3ccsc3)CC2)ncn1Cc1ccc(C(F)(F)F)s1 [compound 230]
42	O=c1nc(N2CC=C(c3ccc(Cl)cn3)CC2)ncn1Cc1ccc(C(F)(F)F)s1 [compound 256]
28	O=c1nc(N2CC=C(c3ccc(F)c(F)c3)CC2)ncn1Cc1ccc(C(F)(F)F)s1 [compound 264]
75	O=C1CCc2cc(C3=CCN(c4ncn(Cc5ccc(C(F)(F)F)s5)c(=O)n4)CC3)ccc21 [compound 269]
30	Cc1cc(C2=CCN(c3ncn(Cc4ccc(C(F)(F)F)s4)c(=O)n3)CC2)sn1 [compound 275]
